Experiments:
Test in all cases: KINOMEscan kinase binding assay (Eurofins/DiscoveRx), % Ctrl
kinases [1] = biological target: T1, kinases (Homo sapiens, UniProt P00519, T315I)
T1 construct: purchased Eurofins/DiscoveRx; host or cells: E. coli BL21-derived host (T7 phage display) for most kinases; HEK-293 for the rest
Procedure, shortened: (§1)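 Competition binding: DNA- or phage-tagged kinases (T7 phage in E. coli BL21, or HEK-293-expressed) with immobilized biotinylated ligand beads and test compound, 1 h at room temperature. Bead-bound kinase eluted and quantified by qPCR; % Ctrl = (compound − positive control)/(negative control − positive control) ×100 at a single compound concentration.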

kinases [2] = biological target: T2, kinases (Homo sapiens, UniProt P17948)
T2 construct: purchased Eurofins/DiscoveRx; host or cells: E. coli BL21-derived host (T7 phage display) for most kinases; HEK-293 for the rest
Procedure, shortened: as §1

kinases [3] = biological target: T3, kinases (Homo sapiens, UniProt P00519, Y253F)
T3 construct: purchased Eurofins/DiscoveRx; host or cells: E. coli BL21-derived host (T7 phage display) for most kinases; HEK-293 for the rest
Procedure, shortened: as §1

kinases [4] = biological target: T4, kinases (Homo sapiens, UniProt P00533, G719S)
T4 construct: purchased Eurofins/DiscoveRx; host or cells: E. coli BL21-derived host (T7 phage display) for most kinases; HEK-293 for the rest
Procedure, shortened: as §1

kinases [5] = biological target: T5, kinases (Homo sapiens, UniProt P00519, E255K)
T5 construct: purchased Eurofins/DiscoveRx; host or cells: E. coli BL21-derived host (T7 phage display) for most kinases; HEK-293 for the rest
Procedure, shortened: as §1

kinases [6] = biological target: T6, kinases (Homo sapiens, UniProt P10721, A829P)
T6 construct: purchased Eurofins/DiscoveRx; host or cells: E. coli BL21-derived host (T7 phage display) for most kinases; HEK-293 for the rest
Procedure, shortened: as §1

kinases [7] = biological target: T7, kinases (Homo sapiens, UniProt P36888, N841I)
T7 construct: purchased Eurofins/DiscoveRx; host or cells: E. coli BL21-derived host (T7 phage display) for most kinases; HEK-293 for the rest
T7 sequence (P36888 27-993 N841I): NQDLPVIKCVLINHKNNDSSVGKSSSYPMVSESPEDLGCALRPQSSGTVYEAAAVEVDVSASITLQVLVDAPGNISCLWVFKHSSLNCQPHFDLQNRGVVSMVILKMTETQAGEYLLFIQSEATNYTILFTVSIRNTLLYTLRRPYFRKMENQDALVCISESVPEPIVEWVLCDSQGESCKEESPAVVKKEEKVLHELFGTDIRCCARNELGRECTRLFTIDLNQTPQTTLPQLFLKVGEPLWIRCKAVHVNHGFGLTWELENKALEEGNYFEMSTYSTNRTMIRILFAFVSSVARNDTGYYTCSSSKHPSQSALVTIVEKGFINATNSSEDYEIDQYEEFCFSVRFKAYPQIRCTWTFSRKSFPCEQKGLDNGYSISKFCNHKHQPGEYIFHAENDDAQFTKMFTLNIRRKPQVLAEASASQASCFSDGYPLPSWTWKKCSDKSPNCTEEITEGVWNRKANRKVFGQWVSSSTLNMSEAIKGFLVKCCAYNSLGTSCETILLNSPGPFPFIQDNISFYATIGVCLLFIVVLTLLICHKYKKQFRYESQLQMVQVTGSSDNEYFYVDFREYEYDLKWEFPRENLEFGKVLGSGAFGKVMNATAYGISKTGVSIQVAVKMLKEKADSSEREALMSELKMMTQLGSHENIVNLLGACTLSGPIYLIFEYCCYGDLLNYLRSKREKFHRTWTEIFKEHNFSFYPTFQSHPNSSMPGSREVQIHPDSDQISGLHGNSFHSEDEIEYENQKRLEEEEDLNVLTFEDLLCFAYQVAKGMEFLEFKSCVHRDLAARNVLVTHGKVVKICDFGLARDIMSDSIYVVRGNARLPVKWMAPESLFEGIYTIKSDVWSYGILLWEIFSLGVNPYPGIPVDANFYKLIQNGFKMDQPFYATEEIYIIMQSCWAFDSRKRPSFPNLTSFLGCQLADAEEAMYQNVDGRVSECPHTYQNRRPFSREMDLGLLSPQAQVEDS
Procedure, shortened: as §1

[8] = 1 μM; ABL1(T315I)-nonphosphorylated
[9] = 1 μM; ABL1(T315I)-phosphorylated
[10] = 1 μM; ABL1(Y253F)-phosphorylated
[11] = 1 μM; ABL1(E255K)-phosphorylated
[12] = target ABL1(T315I)-nonphosphorylated; 1 μM
[13] = target ABL1(T315I)-phosphorylated; 1 μM
[14] = target ABL1(Y253F)-phosphorylated; 1 μM
[15] = target ABL1(E255K)-phosphorylated; 1 μM

T6 sequence (P10721 26-976 A829P): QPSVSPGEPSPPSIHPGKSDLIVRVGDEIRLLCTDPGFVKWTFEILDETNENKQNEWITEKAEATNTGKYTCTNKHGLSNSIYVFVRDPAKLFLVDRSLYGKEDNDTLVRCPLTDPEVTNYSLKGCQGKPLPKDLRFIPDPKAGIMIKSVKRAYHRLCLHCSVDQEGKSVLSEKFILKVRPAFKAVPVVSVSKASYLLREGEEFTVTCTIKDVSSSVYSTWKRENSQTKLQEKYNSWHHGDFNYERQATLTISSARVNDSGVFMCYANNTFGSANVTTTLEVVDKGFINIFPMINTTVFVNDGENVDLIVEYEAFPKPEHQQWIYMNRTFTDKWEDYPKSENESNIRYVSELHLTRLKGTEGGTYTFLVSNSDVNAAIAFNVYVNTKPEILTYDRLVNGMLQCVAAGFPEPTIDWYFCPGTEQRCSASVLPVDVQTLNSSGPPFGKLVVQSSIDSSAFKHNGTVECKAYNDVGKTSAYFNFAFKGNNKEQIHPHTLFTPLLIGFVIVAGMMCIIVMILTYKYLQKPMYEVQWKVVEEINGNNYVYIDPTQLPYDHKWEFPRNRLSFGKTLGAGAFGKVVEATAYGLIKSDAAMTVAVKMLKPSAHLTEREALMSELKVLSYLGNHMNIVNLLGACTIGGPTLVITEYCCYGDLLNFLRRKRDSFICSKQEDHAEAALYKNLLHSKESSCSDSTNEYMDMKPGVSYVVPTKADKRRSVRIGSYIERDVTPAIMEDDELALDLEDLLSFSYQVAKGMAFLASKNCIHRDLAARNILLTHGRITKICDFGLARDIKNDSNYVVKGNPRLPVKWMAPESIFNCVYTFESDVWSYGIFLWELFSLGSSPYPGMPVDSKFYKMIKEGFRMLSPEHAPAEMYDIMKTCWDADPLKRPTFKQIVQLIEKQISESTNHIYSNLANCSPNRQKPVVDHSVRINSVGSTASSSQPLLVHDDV
T2 sequence (P17948 27-1338): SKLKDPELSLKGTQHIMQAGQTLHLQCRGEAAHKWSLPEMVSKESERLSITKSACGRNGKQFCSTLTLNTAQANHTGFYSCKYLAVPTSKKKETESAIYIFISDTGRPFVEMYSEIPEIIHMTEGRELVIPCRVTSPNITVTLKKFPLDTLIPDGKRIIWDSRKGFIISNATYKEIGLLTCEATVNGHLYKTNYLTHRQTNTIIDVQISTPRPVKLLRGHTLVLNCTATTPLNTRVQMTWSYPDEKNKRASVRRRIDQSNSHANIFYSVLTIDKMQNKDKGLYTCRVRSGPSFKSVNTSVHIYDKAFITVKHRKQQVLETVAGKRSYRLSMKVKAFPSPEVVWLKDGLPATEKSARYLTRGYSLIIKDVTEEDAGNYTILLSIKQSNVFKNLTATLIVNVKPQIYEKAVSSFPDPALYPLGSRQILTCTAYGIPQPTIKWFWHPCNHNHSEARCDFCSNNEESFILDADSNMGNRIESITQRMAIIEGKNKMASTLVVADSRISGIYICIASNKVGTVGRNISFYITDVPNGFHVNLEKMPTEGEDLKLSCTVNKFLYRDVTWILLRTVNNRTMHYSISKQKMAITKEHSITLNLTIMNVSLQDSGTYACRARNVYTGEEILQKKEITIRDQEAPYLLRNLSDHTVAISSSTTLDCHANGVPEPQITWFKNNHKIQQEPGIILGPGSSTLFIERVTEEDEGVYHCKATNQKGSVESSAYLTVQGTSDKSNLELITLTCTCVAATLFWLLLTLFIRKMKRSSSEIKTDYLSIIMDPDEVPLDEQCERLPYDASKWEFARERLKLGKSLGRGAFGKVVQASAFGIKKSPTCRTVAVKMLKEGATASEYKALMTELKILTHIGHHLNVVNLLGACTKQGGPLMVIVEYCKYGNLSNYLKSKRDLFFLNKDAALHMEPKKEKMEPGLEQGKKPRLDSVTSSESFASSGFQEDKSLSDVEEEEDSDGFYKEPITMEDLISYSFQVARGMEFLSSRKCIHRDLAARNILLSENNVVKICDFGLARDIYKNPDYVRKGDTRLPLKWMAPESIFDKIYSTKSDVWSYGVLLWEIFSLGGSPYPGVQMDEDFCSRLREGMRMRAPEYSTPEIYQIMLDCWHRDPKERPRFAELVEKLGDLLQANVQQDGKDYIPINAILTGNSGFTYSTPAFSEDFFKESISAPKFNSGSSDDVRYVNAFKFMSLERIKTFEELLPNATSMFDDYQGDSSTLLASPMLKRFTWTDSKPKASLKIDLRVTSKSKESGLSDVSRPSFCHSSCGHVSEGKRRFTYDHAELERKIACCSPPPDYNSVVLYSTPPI

| Compound | % Ctrl, ABL1(T315I)-nonphosphorylated (kinases [1]; [8]) [% Ctrl] | % Ctrl, ABL1(T315I)-phosphorylated (kinases [1]; [9]) [% Ctrl] | % Ctrl, FLT1 (kinases [2]; 1 μM; FLT1) [% Ctrl] | % Ctrl, ABL1(Y253F)-phosphorylated (kinases [3]; [10]) [% Ctrl] | % Ctrl, EGFR(G719S) (kinases [4]; 1 μM; EGFR(G719S)) [% Ctrl] | % Ctrl, ABL1(E255K)-phosphorylated (kinases [5]; [11]) [% Ctrl] | % Ctrl, KIT(A829P) (kinases [6]; 1 μM; KIT(A829P)) [% Ctrl] | % Ctrl, FLT3(N841I) (kinases [7]; 1 μM; FLT3(N841I)) [% Ctrl] | further results |
| --- | --- | --- | --- | --- | --- | --- | --- | --- | --- |
| Cc1cc2c([nH]1)/C=C1\C(=O)Nc3cc(Cl)c(cc31)OCCO[C@@H](C(=O)N1CCN(C)CC1)CN(C)C2=O [Ex. 138, [7R,16a(17)Z]-19-chloro-2,5-dimethyl-7-(4-methylpipearazine-1-carbonyl)-6,7,9,10-tetrahydro-1H-12,14-(ethanediylidene)dipyrrolo[3,2-i:3′,4′-l][1,4,7]dioxazacyclopentadecine-4,16(5H,15H)-dione] | – | – | – | – | – | – | – | – | % Ctrl, ABL1(T315I)-nonphosphorylated (kinases [1]; [12]): 87 % Ctrl; % Ctrl, ABL1(T315I)-phosphorylated (kinases [1]; [13]): 76 % Ctrl; % Ctrl, FLT1 (kinases [2]; target FLT1; 1 μM): 96 % Ctrl; % Ctrl, ABL1(Y253F)-phosphorylated (kinases [3]; [14]): 91 % Ctrl; % Ctrl, EGFR(G719S) (kinases [4]; target EGFR(G719S); 1 μM): 95 % Ctrl; % Ctrl, ABL1(E255K)-phosphorylated (kinases [5]; [15]): 61 % Ctrl; % Ctrl, KIT(A829P) (kinases [6]; target KIT(A829P); 1 μM): 100 % Ctrl; % Ctrl, FLT3(N841I) (kinases [7]; target FLT3(N841I); 1 μM): 68 % Ctrl |
| Cc1cc2c([nH]1)/C=C1\C(=O)Nc3cc(Cl)c(cc31)OCCOCCN(C)C2=O [Ex. 131, [16a(17)Z]-19-chloro-2,5-dimethyl-6,7,9,10-tetrahydro-1H-12,14-(ethanediylidene)dipyrrolo[3,2-i:3′,4′-l][1,4,7]dioxazacyclopentadecine-4,16(5H,15H)-dione] | 0 | 1.1 | 4 | 0 | 80 | 0 | 4 | 0 | – |
| Cc1cc2c([nH]1)/C=C1\C(=O)Nc3ccc(cc31)-c1cnn(C)c1OCCCN(C)C2=O [Ex. 166, [3a(4)Z]-9,14-dimethyl-9,10,11,12-tetrahydro-14H-1,17-(ethanediylidene)pyrazolo[4,3-n]dipyrrolo[3,2-g:3′,4′-j][1,5]oxazacyclopentadecine-3,8(2H,5H)-dione] | – | – | – | – | – | – | – | – | % Ctrl, ABL1(T315I)-nonphosphorylated (kinases [1]; 1 μM; target ABL1(T315I)-nonphosphorylated): 1.4 % Ctrl; % Ctrl, ABL1(T315I)-phosphorylated (kinases [1]; 1 μM; target ABL1(T315I)-phosphorylated): 1.2 % Ctrl; % Ctrl, FLT1 (kinases [2]; 1 μM; target FLT1): 79 % Ctrl; % Ctrl, ABL1(Y253F)-phosphorylated (kinases [3]; 1 μM; target ABL1(Y253F)-phosphorylated): 11 % Ctrl; % Ctrl, EGFR(G719S) (kinases [4]; 1 μM; target EGFR(G719S)): 99 % Ctrl; % Ctrl, ABL1(E255K)-phosphorylated (kinases [5]; 1 μM; target ABL1(E255K)-phosphorylated): 1.8 % Ctrl; % Ctrl, KIT(A829P) (kinases [6]; 1 μM; target KIT(A829P)): 28 % Ctrl; % Ctrl, FLT3(N841I) (kinases [7]; 1 μM; target FLT3(N841I)): 0 % Ctrl |
| Cc1cc2c([nH]1)/C=C1\C(=O)Nc3cc(Cl)c(cc31)OCCO[C@@H](C(=O)NC1CCNCC1)CN(C)C2=O [Ex. 134, [7R,16a(17)Z]-19-chloro-2,5-dimethyl-4,16-dioxo-N-(piperidin-4-yl)-4,5,6,7,9,10,15,16-octahydro-1H-12,14-(ethaneidylidene)dipyrrolo[3,2-i:3′,4′-l][1,4,7]dioxazacyclopentadecine-7-carboxamide] | 84 | 46 | 97 | 32 | 92 | 50 | 69 | 26 | – |
| Cc1cc2c([nH]1)/C=C1\C(=O)Nc3ccc(cc31)-c1ccnn1CCOCCN(C)C2=O [Ex. 41, [19a(20)Z]-2,5-dimethyl-6,7,9,10-tetrahydro-1H-15,17-(ethanediylidene)pyrazolo[1,5-d]dipyrrolo[3,4-h:2′,3′-k][1,4,14]oxadiazacyclohexadecine-4,19(5H,18H)-dione] | 16 | 19 | 81 | 49 | 86 | 49 | 45 | 0 | – |
| CN1CCOCCOc2cc3c(cc2Cl)NC(=O)/C3=C\c2[nH]ccc2C1=O [Ex. 143, [16a(17)Z]-19-chloro-2,5-dimethyl-6,7,9,10-tetrahydro-1H-12,14-(ethanediylidene)dipyrrolo[3,2-i:3′,4′-l][1,4,7]oxathiazacyclopentadecine-4,16(5H,15H)-dione] | – | – | – | – | – | – | – | – | % Ctrl, ABL1(T315I)-nonphosphorylated (kinases [1]; [12]): 42 % Ctrl; % Ctrl, ABL1(T315I)-phosphorylated (kinases [1]; [13]): 27 % Ctrl; % Ctrl, FLT1 (kinases [2]; target FLT1; 1 μM): 11 % Ctrl; % Ctrl, ABL1(Y253F)-phosphorylated (kinases [3]; [14]): 9.1 % Ctrl; % Ctrl, EGFR(G719S) (kinases [4]; target EGFR(G719S); 1 μM): 94 % Ctrl; % Ctrl, ABL1(E255K)-phosphorylated (kinases [5]; [15]): 6.4 % Ctrl; % Ctrl, KIT(A829P) (kinases [6]; target KIT(A829P); 1 μM): 51 % Ctrl; % Ctrl, FLT3(N841I) (kinases [7]; target FLT3(N841I); 1 μM): 5.5 % Ctrl |
| Cc1cc2c([nH]1)/C=C1\C(=O)Nc3ccc(cc31)O[C@@H](C)COCCN(C)C2=O [Ex. 92, [10S,16a(17)Z]-2,5,10-trimethyl-6,7,9,10-tetrahydro-1H-12,14-(ethanediylidene)dipyrrolo[3,2-i:3′,4′-l][1,4,7]dioxazacyclopentadecine-4,16(5H,15H)-dione] | 12 | 66 | 90 | 54 | 98 | 22 | 100 | 20 | – |

Continued, in another order:

| % Ctrl, ABL1(T315I)-nonphosphorylated (kinases [1]; [8]) [% Ctrl] | % Ctrl, ABL1(T315I)-phosphorylated (kinases [1]; [9]) [% Ctrl] | % Ctrl, FLT1 (kinases [2]; 1 μM; FLT1) [% Ctrl] | % Ctrl, ABL1(Y253F)-phosphorylated (kinases [3]; [10]) [% Ctrl] | % Ctrl, EGFR(G719S) (kinases [4]; 1 μM; EGFR(G719S)) [% Ctrl] | % Ctrl, ABL1(E255K)-phosphorylated (kinases [5]; [11]) [% Ctrl] | % Ctrl, KIT(A829P) (kinases [6]; 1 μM; KIT(A829P)) [% Ctrl] | % Ctrl, FLT3(N841I) (kinases [7]; 1 μM; FLT3(N841I)) [% Ctrl] | Compound | further results |
| --- | --- | --- | --- | --- | --- | --- | --- | --- | --- |
| 68 | 75 | 96 | 80 | 92 | 84 | 77 | 98 | Cc1cc2c([nH]1)/C=C1\C(=O)Nc3ccc(cc31)-c1ccnn1CCNCCNC2=O [Ex. 43, [19a(20)Z]-2-methyl-5,6,7,8,9,10-hexahydro-15,17-(ethanediylidene)pyrazolo[1,5-g]dipyrrolo[3,4-k:2′,3′-n][1,4,7]triazacyclohexadecine-4,19(1H,18H)-dione] | – |
| 0 | 0.1 | 11 | 0 | 88 | 0.05 | 2.6 | 0 | Cc1cc2c([nH]1)/C=C1\C(=O)Nc3ccc(cc31)-c1cnn(C)c1CNCCN(C)C2=O [Ex. 125, [3a(4)Z]-6,9,14-trimethyl-9,10,11,12,13,14-hexahydro-1,17-(ethanediylidene)pyrazolo[4,3-m]dipyrrolo[3,2-f:3′,4′-i][1,4]diazacyclopentadecine-3,8(2H,5H)-dione] | – |
| 100 | 100 | 96 | 100 | 94 | 92 | 100 | 95 | Cc1cc2c([nH]1)/C=C1\C(=O)Nc3cnc(cc31)-c1cnn(C)c1COCCNC2=O [Ex.123, [3a(4)Z]-6,14-dimethyl-10,11,13,14-tetrahydro-2H-17,1-(azenometheno)pyrazolo[4,3-m]dipyrrolo[3,2-f:3′,4′-i][1,4]oxazacyclopentadecine-3,8(5H,9H)-dione] | – |

— patent publication US20230257396A1, “MACROCYCLES AND THEIR USE” (BLOSSOMHILL THERAPEUTICS, INC., priority 2020, published 2023)
